Experimental data taken from US9249145B2, “Heterocyclic derivatives of pyrazol-4-yl-pyrrolo[2,3-d]pyrimidines as janus kinase inhibitors” (Incyte Holdings Corporation, priority 2009, dated 2016).
Where a name gives a salt, the structure may show the parent alone. Read-outs that look alike come from different tables or passages of the source.

Key:
Jak2 (a.a. 828-1132) = molecular target: T1, Jak2 (a.a. 828-1132) (Homo sapiens, UniProt O60674); experiment: In vitro JAK kinase assay (HTRF, phosphorylation of biotinylated peptide), JAK2; assay type: biochemical; settings: 1 mM ATP, read-out: JAK2 IC50 (nM) @ 1 mM ATP
T1 construct: Jak2 (a.a. 828-1132); His tag (N); made in house; host or cells: insect cells (baculovirus)
T1 sequence (O60674 828-1132): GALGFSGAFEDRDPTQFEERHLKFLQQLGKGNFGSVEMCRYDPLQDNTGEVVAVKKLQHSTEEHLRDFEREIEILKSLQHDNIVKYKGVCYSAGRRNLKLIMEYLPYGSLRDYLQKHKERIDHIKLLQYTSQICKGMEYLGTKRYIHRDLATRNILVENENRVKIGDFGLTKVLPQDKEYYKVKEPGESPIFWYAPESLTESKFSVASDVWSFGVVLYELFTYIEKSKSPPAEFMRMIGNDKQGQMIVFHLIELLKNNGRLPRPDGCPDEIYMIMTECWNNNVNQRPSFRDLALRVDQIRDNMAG
Method in brief: (§1)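 His-tagged catalytic domains expressed in baculovirus/insect cells; biotinylated peptide (500 nM) phosphorylation in 50 mM Tris pH 7.8, 100 mM NaCl, 5 mM DTT, 0.01% BSA, 1 h room temperature. ATP at Km (JAK1 90 μM, JAK2 30 μM) or 1 mM. EDTA stop, Eu-Py20/SA-APC HTRF read; IC50.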

[1] = molecular target: T2, human JAK1 (a.a. 837-1142) (Homo sapiens, UniProt P23458); experiment: In vitro JAK kinase assay (HTRF, phosphorylation of biotinylated peptide), JAK1; assay type: biochemical; settings: 1 mM ATP, read-out: JAK1 IC50 (nM) @ 1 mM ATP
T2 construct: The catalytic domains of human JAK1 (a.a. 837-1142); His tag (N); made in house; host or cells: insect cells (baculovirus)
T2 sequence (P23458 849-1154): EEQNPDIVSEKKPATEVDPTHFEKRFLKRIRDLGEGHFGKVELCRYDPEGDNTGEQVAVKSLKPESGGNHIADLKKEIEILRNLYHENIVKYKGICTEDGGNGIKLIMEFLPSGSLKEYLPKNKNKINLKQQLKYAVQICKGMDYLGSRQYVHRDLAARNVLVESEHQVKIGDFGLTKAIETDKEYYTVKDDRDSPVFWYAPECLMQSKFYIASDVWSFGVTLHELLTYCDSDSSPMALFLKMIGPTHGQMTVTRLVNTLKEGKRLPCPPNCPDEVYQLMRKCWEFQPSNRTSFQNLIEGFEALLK
Method in brief: as §1

| SMILES | IC50 (Jak2 (a.a. 828-1132); Examples 12-91) [nM] | IC50 ([1]; Examples 12-91) [nM] | IC50 (Jak2 (a.a. 828-1132); Examples 92-162) [nM] | IC50 ([1]; Examples 92-162) [nM] |
| --- | --- | --- | --- | --- |
| N#CCC(CN1CCN(C(=O)c2ccc(F)cc2F)CC1)n1cc(-c2ncnc3[nH]ccc23)cn1 (centres unmarked) [Example 30, 3-(4-(7H-pyrrolo[2,3-d]pyrimidin-4-yl)-1H-pyrazol-1-yl)-4-(4-(2,4-difluorobenzoyl)piperazin-1-yl)butanenitrile] | < 10 | < 10 |  |  |
| N#CCC(CN1CCN(C(=O)Nc2ccccc2OC(F)F)CC1)n1cc(-c2ncnc3[nH]ccc23)cn1 (centres unmarked) [Example 74, 4-(2-(4-(7H-pyrrolo[2,3-d]pyrimidin-4-yl)-1H-pyrazol-1-yl)-3-cyanopropyl)-N-(2-(difluoromethoxy)phenyl)piperazine-1-carboxamide] | 50 to 100 | 10 to 50 |  |  |
| N#CCC(C1CCN(c2cc(Oc3cccc(F)c3)ncn2)CC1)n1cc(-c2ncnc3[nH]ccc23)cn1 (centres unmarked) [Example 152, 3-(4-(7H-pyrrolo[2,3-d]pyrimidin-4-yl)-1H-pyrazol-1-yl)-3-(1-(6-(3-fluorophenoxy)pyrimidin-4-yl)piperidin-4-yl)propanenitrile] |  |  | < 20 | 20 to 50 |
| N#CCC(CN1CCN(C(=O)c2ccc(F)c(F)c2)CC1)n1cc(-c2ncnc3[nH]ccc23)cn1 (centres unmarked) [Example 50, 3-(4-(7H-pyrrolo[2,3-d]pyrimidin-4-yl)-1H-pyrazol-1-yl)-4-(4-(3,4-difluorobenzoyl)piperazin-1-yl)butanenitrile] | 10 to 50 | 10 to 50 |  |  |
| N#CCC(CN1CCN(C(=O)c2ccc(C#N)cc2)CC1)n1ccc(-c2ncnc3[nH]ccc23)c1 (centres unmarked) [Example 88, 4-(4-(2-(3-(7H-pyrrolo[2,3-d]pyrimidin-4-yl)-1H-pyrrol-1-yl)-3-cyanopropyl)piperazine-1-carbonyl)benzonitrile] | > 100 | 10 to 50 |  |  |
| CCC(CN1CCN(S(=O)(=O)c2ccccc2C(F)(F)F)CC1)n1cc(-c2ncnc3[nH]ccc23)cn1 (centres unmarked) [Example 130, 4-(1-(1-(4-(2-(trifluoromethyl)phenylsulfonyl)piperazin-1-yl)butan-2-yl)-1H-pyrazol-4-yl)-7H-pyrrolo[2,3-d]pyrimidine] |  |  | 50 to 100 | < 20 |
| Cc1c(Nc2c(F)cccc2F)ncnc1N1CCC(C(CC#N)n2cc(-c3ncnc4[nH]ccc34)cn2)CC1 (centres unmarked) [Example 154, 3-(4-(7H-pyrrolo[2,3-d]pyrimidin-4-yl)-1H-pyrazol-1-yl)-3-(1-(6-(2,6-difluorophenylamino)-5-methylpyrimidin-4-yl)piperidin-4-yl)propanenitrile] |  |  | 50 to 100 | < 20 |
| N#CCC(CN1CCCN(S(=O)(=O)c2ccccc2OC(F)(F)F)CC1)n1cc(-c2ncnc3[nH]ccc23)cn1 (centres unmarked) [Example 110, 3-[4-(7H-pyrrolo[2,3-d]pyrimidin-4-yl)-1H-pyrazol-1-yl]-4-(4-{[2-(trifluoromethoxy)phenyl]sulfonyl}-1,4-diazepan-1-yl)butanenitrile] |  |  | > 100 | 20 to 50 |
| CCC(CN1CCN(C(=O)c2ccc(F)cc2F)CC1)n1cc(-c2ncnc3[nH]ccc23)cn1 (centres unmarked) [Example 118, (4-(2-(4-(7H-pyrrolo[2,3-d]pyrimidin-4-yl)-1H-pyrazol-1-yl)butyl)piperazin-1-yl)(2,4-difluorophenyl)methanone] |  |  | 20 to 50 | < 20 |
| COc1cc(Cl)ccc1C(=O)N1CCCN(CC(CC#N)n2cc(-c3ncnc4[nH]ccc34)cn2)CC1 (centres unmarked) [Example 106, 4-[4-(4-chloro-2-methoxybenzoyl)-1,4-diazepan-1-yl]-3-[4-(7H-pyrrolo[2,3-d]pyrimidin-4-yl)-1H-pyrazol-1-yl]butanenitrile] |  |  | 50 to 100 | < 20 |
| N#CCC(CN1CCN(C(=O)c2ncc(C(F)(F)F)cc2F)CC1)n1cc(-c2ncnc3[nH]ccc23)cn1 (centres unmarked) [Example 19, 4-(4-{[3-fluoro-5-(trifluoromethyl)pyridin-2-yl]carbonyl}piperazin-1-yl)-3-[4-(7H-pyrrolo[2,3-d]pyrimidin-4-yl)-1H-pyrazol-1-yl]butanenitrile] | > 100 | 10 to 50 |  |  |
| CCC(CN1CCN(S(=O)(=O)c2cn(C)nc2C(F)(F)F)CC1)n1cc(-c2ncnc3[nH]ccc23)cn1 (centres unmarked) [Example 133, 4-(1-(1-(4-(1-methyl-3-(trifluoromethyl)-1H-pyrazol-4-ylsulfonyl)piperazin-1-yl)butan-2-yl)-1H-pyrazol-4-yl)-7H-pyrrolo[2,3-d]pyrimidine] |  |  | > 100 | 20 to 50 |
| N#CCC(CN1CCCN(C(=O)c2ccc(F)cc2)CC1)n1cc(-c2ncnc3[nH]ccc23)cn1 (centres unmarked) [Example 98, 4-[4-(4-fluorobenzoyl)-1,4-diazepan-1-yl]-3-[4-(7H-pyrrolo[2,3-d]pyrimidin-4-yl)-1H-pyrazol-1-yl]butanenitrile] |  |  | > 100 | 20 to 50 |
| CCC(CN1CCN(S(=O)(=O)c2sccc2Cl)CC1)n1cc(-c2ncnc3[nH]ccc23)cn1 (centres unmarked) [Example 135, 4-(1-(1-(4-(3-chlorothiophen-2-ylsulfonyl)piperazin-1-yl)butan-2-yl)-1H-pyrazol-4-yl)-7H-pyrrolo[2,3-d]pyrimidine] |  |  | 20 to 50 | < 20 |
| CCC(CN1CCN(S(=O)(=O)c2cccs2)CC1)n1cc(-c2ncnc3[nH]ccc23)cn1 (centres unmarked) [Example 134, 4-(1-(1-(4-(thiophen-2-ylsulfonyl)piperazin-1-yl)butan-2-yl)-1H-pyrazol-4-yl)-7H-pyrrolo[2,3-d]pyrimidine] |  |  | 20 to 50 | < 20 |
| N#CCC(CN1CCN(C(=O)c2cc(F)cc(F)c2)CC1)n1ccc(-c2ncnc3[nH]ccc23)c1 (centres unmarked) [Example 81, 3-(3-(7H-pyrrolo[2,3-d]pyrimidin-4-yl)-1H-pyrrol-1-yl)-4-(4-(3,5-difluorobenzoyl)piperazin-1-yl)butanenitrile] | 50 to 100 | < 10 |  |  |
| N#CCC(CN1CCN(C(=O)c2ccc(C#N)cc2F)CC1CO)n1cc(-c2ncnc3[nH]ccc23)cn1 (single isomer, unassigned) [156—peak 2, 4-{[4-{3-cyano-2-[4-(7H-pyrrolo[2,3-d]pyrimidin-4-yl)-1H-pyrazol-1-yl]propyl}-3-(hydroxymethyl)piperazin-1-yl]carbonyl}-3-fluorobenzonitrile trifluoroacetate Salt] |  |  | > 100 | > 100 |
| N#CCC(CN1CCN(C(=O)c2ccc(F)c(OC(F)(F)F)c2)CC1)n1ccc(-c2ncnc3[nH]ccc23)c1 (centres unmarked) [Example 85, 3-(3-(7H-pyrrolo[2,3-d]pyrimidin-4-yl)-1H-pyrrol-1-yl)-4-(4-(4-fluoro-3-(trifluoromethoxy)benzoyl)piperazin-1-yl)butanenitrile] | > 100 | 10 to 50 |  |  |
| N#CCC(CN1CCN(C(=O)c2ccc(C#N)cc2F)CC1CO)n1cc(-c2ncnc3[nH]ccc23)cn1 (single isomer, unassigned) [156—peak 3, 4-{[4-{3-cyano-2-[4-(7H-pyrrolo[2,3-d]pyrimidin-4-yl)-1H-pyrazol-1-yl]propyl}-3-(hydroxymethyl)piperazin-1-yl]carbonyl}-3-fluorobenzonitrile trifluoroacetate Salt] |  |  | > 100 | 50 to 100 |
| N#CCC(CN1CCN(C(=O)c2c(O)cccc2F)CC1)n1cc(-c2ncnc3[nH]ccc23)cn1 (centres unmarked) [Example 35, 3-(4-(7H-pyrrolo[2,3-d]pyrimidin-4-yl)-1H-pyrazol-1-yl)-4-(4-(2-fluoro-6-hydroxybenzoyl)piperazin-1-yl)butanenitrile] | < 10 | < 10 |  |  |
| Cc1c(Nc2ccc(F)c(F)c2)ncnc1N1CCC(C(CC#N)n2cc(-c3ncnc4[nH]ccc34)cn2)CC1 (centres unmarked) [Example 150, 3-(4-(7H-pyrrolo[2,3-d]pyrimidin-4-yl)-1H-pyrazol-1-yl)-3-(1-(6-(3,4-difluorophenylamino)-5-methylpyrimidin-4-yl)piperidin-4-yl)propanenitrile] |  |  | < 20 | < 20 |
| N#CCC(CN1CCN(C(=O)c2ccc(C#N)cc2F)CC1C(F)F)n1cc(-c2ncnc3[nH]ccc23)cn1 (single isomer, unassigned) [Example 159—peak 1, 4-{[4-{3-cyano-2-[4-(7H-pyrrolo[2,3-d]pyrimidin-4-yl)-1H-pyrazol-1-yl]propyl}-3-(difluoromethyl)piperazin-1-yl]carbonyl}-3-fluorobenzonitrile] |  |  | > 100 | > 100 |
| CC(CN1CCN(S(=O)(=O)c2ccc(Cl)s2)CC1)n1cc(-c2ncnc3[nH]ccc23)cn1 (centres unmarked) [Example 93, 4-[1-(2-{4-[(5-chloro-2-thienyl)sulfonyl]piperazin-1-yl}-1-methylethyl)-1H-pyrazol-4-yl]-7H-pyrrolo[2,3-d]pyrimidine] |  |  | > 100 | 20 to 50 |
| N#CCC(CN1CCN(C(=O)c2ccc(C#N)cc2F)CC1CF)n1cc(-c2ncnc3[nH]ccc23)cn1 (single isomer, unassigned) [Example 158, 4-[(4-{3-cyano-2-[4-(7H-pyrrolo[2,3-d]pyrimidin-4-yl)-1H-pyrazol-1-yl]propyl}-3-fluoromethylpiperazin-1-yl)carbonyl]-3-fluorobenzonitrile] |  |  | > 100 | < 20 |
| CC(CN1CCN(S(=O)(=O)c2cccc(F)c2)CC1)n1cc(-c2ncnc3[nH]ccc23)cn1 (centres unmarked) [Example 96, 4-[1-(2-{4-[(3-fluorophenyl)sulfonyl]piperazin-1-yl}-1-methylethyl)-1H-pyrazol-4-yl]-7H-pyrrolo[2,3-d]pyrimidine bis(trifluoroacetate)] |  |  | > 100 | 20 to 50 |
